Read-outs that look alike come from different tables or passages of the source.
Experiments:
[1] = cited from earlier work; for Kp,uu,brain Human: *3 ref Summerfield et al. (25)
[2] = cited from earlier work
BCRP = molecular target: T1, BCRP (Homo sapiens, UniProt Q9UNQ0); experiment: Transcellular transport across MDCK-BCRP cell monolayers (efflux ratio); settings: dog, pH 7.4
T1 sequence (Q9UNQ0 1-655): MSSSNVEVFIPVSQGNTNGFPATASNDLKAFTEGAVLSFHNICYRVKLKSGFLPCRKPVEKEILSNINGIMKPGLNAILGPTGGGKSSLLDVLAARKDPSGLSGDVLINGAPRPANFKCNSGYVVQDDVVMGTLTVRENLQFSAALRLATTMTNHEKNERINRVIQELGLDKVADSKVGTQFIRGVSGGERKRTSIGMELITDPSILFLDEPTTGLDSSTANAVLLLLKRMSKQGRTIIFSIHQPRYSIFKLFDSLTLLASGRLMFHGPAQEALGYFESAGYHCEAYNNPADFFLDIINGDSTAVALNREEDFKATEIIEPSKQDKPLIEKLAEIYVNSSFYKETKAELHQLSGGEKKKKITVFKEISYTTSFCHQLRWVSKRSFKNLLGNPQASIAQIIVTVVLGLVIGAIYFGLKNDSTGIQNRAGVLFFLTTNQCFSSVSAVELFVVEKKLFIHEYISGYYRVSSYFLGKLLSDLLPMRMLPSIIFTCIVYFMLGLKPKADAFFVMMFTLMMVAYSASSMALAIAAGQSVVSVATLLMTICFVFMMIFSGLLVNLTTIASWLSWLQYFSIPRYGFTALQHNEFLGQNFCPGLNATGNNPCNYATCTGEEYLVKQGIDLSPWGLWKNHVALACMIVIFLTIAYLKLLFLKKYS
Protocol: (§1) To the compounds available internally, in vitro efflux ratios for MDR1 and BCRP were determined by the following procedure (Supplemental Table 2). Test compound stock solutions in dimethyl sulfoxide (DMSO) were diluted in transport buffer (Hanks’ balanced salt solution (HBSS) with 10 mM HEPES, pH 7.4) to a concentration of 1 μM (DMSO < 1%) and applied to the apical or basolateral side of a cell monolayer derived from Madin-Darby canine kidney (MDCK)-MDR1 and MDCK-BCRP cells. Permeation of the test compounds from apical to basolateral (A to B) direction or B to A direction was measured in duplicate. The plate was incubated for 1 h in a CO2 incubator at 37±1°C with 5% CO2 at saturated humidity without shaking. In addition, the efflux ratio of each compound was also determined. Test and reference compounds were quantified by LC-MS/MS analysis based on the peak area ratio of analyte/internal standard.
(§2) The apparent permeability coefficient Papp (cm/s) was calculated by using Eq. 1: 1 Papp=dCr/dt×Vr/A×C0 where dCr/dt is the cumulative concentration of the compound in the receiver chamber as a function of time (μM/s); Vr is the volume of the solution in the receiver chamber (0.075 mL on the apical side, 0.25 mL on the basolateral side); A is the surface area for transport, i.e., 0.0804 cm^2 for the area of the monolayer; and C0 is the initial concentration (μM) in the donor chamber.
(§3) The efflux ratio was calculated using Eq. 2: 2 Efflux ratio=Papp,BtoA/Papp,AtoB

[3] = cited from earlier work; remark: listed apart in the source
MDR1 = MDR1 (Homo sapiens, UniProt P08183); experiment: in vitro; settings: dog, MDCK-MDR1, pH 7.4
Protocol: as §1, §2, §3

in vivo = settings: rat, in vivo
Protocol: The CSF samples collected from cisterna magna in rats were stored at –80°C until analysis by liquid chromatography-tandem mass spectrometry (LC-MS/MS). Before performing the LC-MS/MS analysis, these samples were thawed on ice and mixed with three volumes of acetonitrile. The acetonitrile mixtures were vortexed and centrifuged, and the supernatant was collected. After dilution with mobile phase A (a mixture of 10 mM ammonium formate and formic acid at 100:0.2 (v/v)), the supernatant was injected into the LC-MS/MS system.
To perform correlation analyses between the observed Kp,uu,brain and Kp,uu,CSF, and the model-based prediction of Kp,uu,brain and Kp,uu,CSF, data from literature information were integrated into the internally obtained data for these assessments (Supplemental Table 2) ([17],[22]–[24],[27]–[33]). When only the total concentrations in plasma, CSF, and brain were available, the total concentration ratio in plasma to CSF or brain (Kp,CSF or Kp,brain, respectively) was estimated, followed by calculation of Kp,uu,CSF or Kp,uu,brain based on Eqs.

[4] = monkey, *9 ref Nagaya et al. (19)
[5] = monkey, *8 ref Uchida et al. (31)

Sequence of MDR1 (P08183 whole entry): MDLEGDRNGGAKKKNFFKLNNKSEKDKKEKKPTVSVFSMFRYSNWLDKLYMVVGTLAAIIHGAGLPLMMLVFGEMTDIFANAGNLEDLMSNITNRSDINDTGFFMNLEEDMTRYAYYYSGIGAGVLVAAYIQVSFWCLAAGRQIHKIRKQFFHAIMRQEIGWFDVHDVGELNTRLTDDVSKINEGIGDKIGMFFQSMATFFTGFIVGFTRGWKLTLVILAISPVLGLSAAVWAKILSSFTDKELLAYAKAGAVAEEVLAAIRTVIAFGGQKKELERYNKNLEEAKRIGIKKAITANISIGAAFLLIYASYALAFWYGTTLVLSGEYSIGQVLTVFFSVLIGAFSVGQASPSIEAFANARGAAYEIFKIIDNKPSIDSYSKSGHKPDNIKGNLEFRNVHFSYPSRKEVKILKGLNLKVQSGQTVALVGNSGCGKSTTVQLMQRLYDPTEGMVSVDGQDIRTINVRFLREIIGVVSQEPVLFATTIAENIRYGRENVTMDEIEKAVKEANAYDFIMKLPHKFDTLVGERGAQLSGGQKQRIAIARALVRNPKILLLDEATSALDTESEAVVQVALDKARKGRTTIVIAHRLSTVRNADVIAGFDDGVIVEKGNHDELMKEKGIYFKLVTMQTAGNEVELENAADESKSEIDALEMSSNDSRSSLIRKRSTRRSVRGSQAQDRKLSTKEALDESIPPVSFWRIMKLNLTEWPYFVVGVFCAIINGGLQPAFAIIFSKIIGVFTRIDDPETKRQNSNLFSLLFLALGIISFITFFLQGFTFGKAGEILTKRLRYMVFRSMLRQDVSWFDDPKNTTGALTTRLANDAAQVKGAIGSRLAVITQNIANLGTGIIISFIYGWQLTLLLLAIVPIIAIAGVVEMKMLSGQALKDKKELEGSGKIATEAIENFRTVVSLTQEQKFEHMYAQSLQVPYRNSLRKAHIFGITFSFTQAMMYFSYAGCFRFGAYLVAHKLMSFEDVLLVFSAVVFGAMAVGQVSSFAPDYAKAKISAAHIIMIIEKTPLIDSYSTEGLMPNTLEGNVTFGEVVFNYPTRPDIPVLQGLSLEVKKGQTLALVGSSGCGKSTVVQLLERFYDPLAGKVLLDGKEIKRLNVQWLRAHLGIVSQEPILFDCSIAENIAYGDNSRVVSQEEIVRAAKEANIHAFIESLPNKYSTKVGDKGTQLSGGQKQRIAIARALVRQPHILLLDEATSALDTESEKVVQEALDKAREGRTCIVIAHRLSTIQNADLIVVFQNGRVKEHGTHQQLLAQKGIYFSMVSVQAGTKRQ

Row | SMILES | Kp,uu,CSF Human ([1]; *4 ref Friden et al. (21)) | Kp,uu,CSF Rat ([2]; *4 ref Friden et al. (21)) | efflux ratio at 1 h, 1 μM (BCRP) | Kp,uu,CSF Monkey [3, 4] | Kp,uu,brain Monkey [3, 4] | Kp,uu,brain Human [1] | Kp,uu,CSF Human ([1]; *10 ref Gatti et al. (28)) | Kp,uu,brain Rat ([2]; *3 ref Summerfield et al. (25)) | Kp,uu,CSF Rat ([2]; *7 ref Kodaira et al. (20)) | Kp,uu,brain Rat ([2]; *7 ref Kodaira et al. (20)) | efflux ratio at 1 h, 1 μM (MDR1) | Kp uu (in vivo; Kp,uu,CSF Rat) | Kp uu (in vivo; Kp,uu,brain Rat) | Kp,uu,brain Rat ([2]; *4 ref Friden et al. (21)) | Kp,uu,brain Monkey [3, 5] | Kp,uu,CSF Monkey ([3]; cynomolgus monkey, in vivo) | Kp,uu,brain Monkey ([3]; cynomolgus monkey, in vivo)
1 | CC(C)NCC(O)COc1cccc2ccccc12 (centres unmarked) [Propranolol] | 0.42 | 0.49 | 1 | 0.461 | 0.947 | – | – | – | – | – | – | – | – | – | – | – | –
2 | NC(=O)N1c2ccccc2C=Cc2ccccc21 [Carbamazepine] | – | – | 0.9 | 1.19 | 1.27 | 0.55 | 1.00 | 0.39 | 0.535 | 0.771 | 1.3 | 0.752 | 0.8 | – | – | – | –
3 | CN(C)C(=O)C(CCN1CCC(O)(c2ccc(Cl)cc2)CC1)(c1ccccc1)c1ccccc1 [Loperamide] | – | 0.037 | 0.97 | – | – | – | – | 0.024 | 0.038 | 0.00896 | 92 | – | – | 0.007 | 0.04 | – | –
4 | Cc1cc(=O)n(-c2ccccc2)n1C [Antipyrine] | – | – | 1 | – | – | – | – | – | – | – | 0.9 | 0.944 | 0.857 | – | – | 1.05 | 0.857
5 | C=C[C@H]1C[N@@]2CC[C@H]1C[C@@H]2[C@@H](O)c1ccnc2ccc(OC)cc12 [Quinidine] | – | – | 0.9 | 0.169 | 0.0658 | – | – | – | 0.0911 | 0.026 | – | 0.419 | 0.0359 | – | 0.0744 | – | –
6 | Nc1nnc(-c2cccc(Cl)c2Cl)c(N)n1 [Lamotrigine] | 1.1 | 0.86 | – | 0.875 | 0.678 | 2.80 | – | 1.40 | – | – | – | – | – | – | – | – | –

From PMC8175309, “Translational CNS Steady-State Drug Disposition Model in Rats, Monkeys, and Humans for Quantitative Prediction of Brain-to-Plasma and Cerebrospinal Fluid-to-Plasma Unbound Concentration Ratios” (The AAPS Journal, 2021)
